{"source": "patent US6664232B1", "about": "“HLA-A2 restraint tumor antigen peptide originating in SART-1” (Kyogo Itoh, priority 1998, dated 2003)", "note": "No end group written: not given here."}
{"test_system": "YK-EC (HLA-A2-restricted CTL cell line) with HLA-A0201-positive T2 cells", "experiment": "IFN-γ production by YK-EC incubated with peptide-pulsed T2 cells (ELISA)", "type": "cell-based, human", "conditions": "2×10^4 T2 cells pulsed with peptide at 10 μM over 2 hours, incubated with 1×10^5 YK-EC for 18 hours; IFN-γ in supernatant by ELISA; non peptide control 6.5", "protocol": "Specifically, 10^4 of VA-13 cells were placed in each well of 96-well microplate, and incubated in RPMI 1640 medium containing 10% FCS. VA-13 cells were doubly transfected with 30 μl mixture consisting of 100 ng of the recombinant plasmid for HLA-A0201 cDNA and 100 ng of 6DI by using Lipofectin reagent (GIBCO BRL). Transfectants were prepared in duplicate. After 5-hour-incubation, 200 μl of culture medium was added to the transfectants, and the incubation continued for 72 hours. The culture medium was removed and 2×10^4 YK-EC were added, which was followed by cultivation for 18 to 24 hours. The culture medium was recovered, and the amount of IFN-γ was measured by ELISA. Specifically, an anti-humnan IFN-γ mouse monoclonal antibody was allowed to adsorb on wells of 96-well microplate to provide a solid-phased antibody. After blocking non-specific bindings with bovine serum albumin, the solid-phased antibody was allowed to bind with IFN-γ in the test sample. Anti-human IFN-γ rabbit polyclonal antibody as a detection antibody was then allowed to bind, which was followed by binding with an anti-rabbit immunoglobulin goat antibody (Amersham) labeled with alkaline phosphatase. The plate was subjected to color development reaction with peroxdase color development kit T (Sumitomo Bakelite), and measurement of absorbance at 405 nm. The absorbance was compared with that obtained with standard IFN-γ to determine the amount of IFN-γ. In the control experiments, the following three groups of cells were treated in the same manner: cells without transfection (non-treated group); cells transfected with recombinant plasmid 6DI alone; and cells transfected with solely recombinant plasmid containing HLA-A201 cDNA. To 2×10^4 T2 cells (Immunogenetics, 21:235,1985), which cell is an HLA-A0201-positive T-B hybridoma cell line but lacks the ability to present endogenous peptides, were added each of six peptides prepared in Example 3 at 10 μM over 2 hours. After incubating with 1×10^5 YK-EC for 18 hours, the amount of IFN-γ in supernatant produced by YK-EC was measured by ELISA in the same manner as described in Example 2.", "units": {"Amount of INF-γ produced by YK-EC": "pg/mL"}}
{"sequence": "RVKAPNKSL [660-668]", "Amount of INF-γ produced by YK-EC": 71.1}
{"sequence": "LLETTVQKV [650-658]", "Amount of INF-γ produced by YK-EC": 118.1}
{"sequence": "YVDETGRKL [712-720]", "Amount of INF-γ produced by YK-EC": 86.1}
{"sequence": "LLLCQNKGLL [642-651]", "Amount of INF-γ produced by YK-EC": 112.4}
{"sequence": "LLLCQNKGL [642-650]", "Amount of INF-γ produced by YK-EC": 109.1}
{"sequence": "AQKTPYIVL [778-786]", "Amount of INF-γ produced by YK-EC": 105.4}
